In patent publication US12600704B2, “Substituted 1,2,4-triazoles and methods of use” (STINGINN LLC, priority 2019, dated 2026):

What was measured:
[1] = system: type I IFN promoter (IFNβ promoter) in hTERT-pIFNβ-Glu cells; experiment: Live cell assay: type I IFN promoter driving luciferase (CMV promoter driving SEAP) in hTERT-pIFNβ-Glu cells; assay type: cell-based, human
From the text: Compounds of the present invention were examined for their ability to activate the type I interferon (IFN) promoter, using a live cell assay. This assay comprised immortalized human fibroblasts (hTERT) that were stably transfected with the type I IFN promoter driving luciferase as well as the CMV promoter driving SEAP (hTERT-pIFNβ-Glu), as described in PCT Application No. PCT/US2019/025380, inventor Glen N. Barber, published as WO2019195285, which is herein incorporated by reference in its entirety and for all purposes. The ability of the small molecules to activate the type I IFN promoter and the transcription of luciferase, but not SEAP was assessed. […]
Solubility was determined using proprietary software, e.g., https://www.researchgate.net/publication/12055195_Internet_Software_for_the_Calculation_of_the_Lipophilicity_and_Aqueous_Solubility_of_Chemical_Compounds, last visited Dec. […]
Example 2: Examining Agonists of STING. […] The ability of the small molecules to activate the type I IFN promoter and the transcription of luciferase, but not SEAP was assessed. […] To confirm this, Compound 28 was administered onto normal hTERT cells and the production of Type I IFN measured using ELISA (FIG. 1C). […]

hTERT cells = experiment: ELISA of type I IFN and cytokines in hTERT cells; assay type: cell-based, human
From the text: (§1) Example 2: Examining Agonists of STING. Compounds of the present invention were examined for its ability to activate the type I interferon (IFN) promoter, using a live cell assay. This assay comprised immortalized human fibroblasts (hTERT) that were stably transfected with the type I IFN promoter driving luciferase as well as the CMV promoter driving SEAP (hTERT-pIFNβ-Glu). The live cell assay was developed by the Barber lab and has been patented. The ability of the small molecules to activate the type I IFN promoter and the transcription of luciferase, but not SEAP was assessed. This is since the activation of STING, typically by CDNs, in turn activates the transcription factors NF-κB and IRF3, both of which are required to induce the transcriptional stimulation of the Type I IFN promoter, but not the CMV promoter (IRF3 and NF-κB transcription factor binding sites are not contained in the CMV promoter). Thus, activation of STING by a small molecule identified in the first screen (HTS), results in the level of luciferase increasing relative to SEAP production. […] To confirm this, Compound 28 was administered onto normal hTERT cells and the production of Type I IFN measured using ELISA (FIG. 1C). […] Thus, Compound 28 is a more robust activator of STING compared to CDNs.
Example 10: Interferon β ELISA analysis. […]

STING [2] = experiment: Immunofluorescence of STING trafficking and IRF3/NF-κB nuclear localization in hTERT cells; assay type: cell-based, human
From the text: Example 2: Examining Agonists of STING. Compounds of the present invention were examined for its ability to activate the type I interferon (IFN) promoter, using a live cell assay. This assay comprised immortalized human fibroblasts (hTERT) that were stably transfected with the type I IFN promoter driving luciferase as well as the CMV promoter driving SEAP (hTERT-pIFNβ-Glu). The live cell assay was developed by the Barber lab and has been patented. The ability of the small molecules to activate the type I IFN promoter and the transcription of luciferase, but not SEAP was assessed. This is since the activation of STING, typically by CDNs, in turn activates the transcription factors NF-κB and IRF3, both of which are required to induce the transcriptional stimulation of the Type I IFN promoter, but not the CMV promoter (IRF3 and NF-κB transcription factor binding sites are not contained in the CMV promoter). […] To confirm this, Compound 28 was administered onto normal hTERT cells and the production of Type I IFN measured using ELISA (FIG. 1C). […]
Example 11: Immunofluorescence microscopy. […] Immunostaining was performed with rabbit-anti-STING polyclonal, rabbit-anti-IRF3 (Santa Cruz Biotechnology) or rabbit-anti-p65 (Cell Signaling) followed by fluorescence conjugated secondary antibodies (FITC-goat-anti-rabbit) (Invitrogen). […]

STING [3] = experiment: Type I IFN production in hTERT cells lacking STING (RNAi); assay type: cell-based, human; details: STING RNAi vs control RNAi
From the text: as §1

[4] = molecular target: T1, STING (amino acids 152-379, STING152-379H) (Homo sapiens, UniProt Q86WV6); experiment: Thermal shift assay (TSA) binding screen with purified STING152-379H
T1 construct: made in house; host or cells: E. coli BL21 DE3 RIPL Codon Plus
From the text: Example 1: Identification of small molecule activators of STING. An assay was designed to identify small compounds that bound to STING. To achieve this, the carboxyl terminal region of STING (amino acids 152-379) fused to a histidine tag was expressed in bacteria as described in materials and methods. Soluble STING dimers were purified over a nickel affinity column and enriched further using gel filtration. Purified STING was used in a thermal shift assay (TSA) to isolate small molecules that bound to STING. A thermal shift assay quantifies the change in the thermal denaturation temperature of a protein. […] Once this was established, purified STING (5 μl; 1 μM) was mixed with 2.5 μl DMSO and compound (1% DMSO final with 2.5% SYPRO orange. The total reaction mixture was 10 μl in […] HEPES and 100 mM NaCl. SYPRO Orange binds nonspecifically to hydrophobic surfaces. When the protein unfolds, the exposed hydrophobic surfaces bind the dye, resulting in an increase in fluorescence by excluding water. The stability curve and its midpoint value (melting temperature, Tm also known as the temperature of hydrophobic exposure, Th) was obtained by gradually increasing the temperature to unfold the protein and measuring the fluorescence at each point. Curves were measured for STING only and STING+small molecule, and ΔTm was calculated. […]

[5] = system: STING dependent TBK1 and IRF3 phosphorylation; experiment: Immunoblot of TBK1/IRF3 phosphorylation in hTERT cells
Procedure: Equal amounts of proteins were resolved on sodium dodecyl sulfate (SDS)-Polyacrylamide gels and then transferred to polyvinylidene fluoride (PVDF) membranes (Millipore). After blocking with 5% Blocking Reagent, membranes were incubated with various primary antibodies (and appropriate secondary antibodies). The image was resolved using an enhanced chemiluminescence system ECL (Thermo Scientific) and detected by autoradiography (Kodak).

T1 sequence (Q86WV6 with tags, fused parts or gaps): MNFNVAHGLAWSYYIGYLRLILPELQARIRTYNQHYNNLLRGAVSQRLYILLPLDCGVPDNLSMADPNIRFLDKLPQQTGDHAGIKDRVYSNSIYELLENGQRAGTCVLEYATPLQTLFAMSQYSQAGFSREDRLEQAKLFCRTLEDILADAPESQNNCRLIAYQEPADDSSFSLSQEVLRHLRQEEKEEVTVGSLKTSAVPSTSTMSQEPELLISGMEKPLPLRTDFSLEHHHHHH

| Molecule | Activation of the type I IFN promoter (luciferase but not SEAP) [1] | fold induction at 50 µM ([1]; Homo sapiens, 50 μM, 0.5% DMSO, luciferase, approx. 24 h (FIGS. 2A-C) or approx. 12 h (FIGS. 3A-B), read-out: Activity (Fold changes of IFNβ promoter activity at 50 μM)) | Production of cytokines IL6, IL8 and MCP-1 (hTERT cells; hTERT cells) | STING trafficking and IRF3/NF-κB activation and nuclear localization (STING [2]) | Duration of STING activation (STING [2]; STING trafficking, nuclear localization of NF-κB and IRF3) | Type I IFN production in hTERT cells lacking STING (STING [3]) | Binding to STING [4] | Activation/phosphorylation of TBK1 (and IRF3) [5] | Production of type I IFN (hTERT cells; human fibroblasts (hTERT)) |
| --- | --- | --- | --- | --- | --- | --- | --- | --- | --- |
| CCc1ccc(-c2nnc(SC(C)C(=O)c3ccccc3)[nH]2)cc1 (stereo not drawn) [Compound 28, 2-((5-(4-ethylphenyl)-4H-1,2,4-triazol-3-yl)thio)-1-phenylpropan-1-one] | exhibited the ability to activate the type I IFN promoter in hTERT-pIFNβ-Glu and induce the expression of luciferase but not SEAP | 8 | the production of cytokines IL6, IL8 and MCP-1 | induces STING trafficking and IRF3/NF-κB activation and nuclear localization in hTERT cells | over 24 hours | unable to produce type I IFN | can bind to and specifically activate STING signaling | able to activate TBK-1 | – |
| 2-((5-(4-ethylphenyl)-4H-1,2,4-triazol-3-yl)thio)-1-phenylpropan-1-one [Compound 28] | – | – | – | – | – | – | – | – | induce the production of type I IFN and other cytokines |
